In brackets after ≈: the same amount, converted by molar mass.
How the values were obtained:
[1] = test system: HCT116 (colon cancer cell line); experiment: Tumor cell growth assay (sulforhodamine B), HCT116; type: cell-based; conditions: for Inhibitory effect on in vitro growth (in words): 48 h exposure; for Remarks (% at 100 ppm): 48 h; for LC90: death of 90% of cells in 48 hrs
Description: (§1) Reagents: Fetal bovine serum (FBS) and L-glutamine were purchased from Gibco Invitrogen Co. (Scotland, UK). RPMI-1640 medium was from Cambrex (New Jersey, USA). Dimethyl sulfoxide (DMSO), doxorubicin, penicillin, streptomycin and sulforhodamine B (SRB) were from Sigma Chemical Co. (Saint Louis, USA).
(§2) Cell cultures: Three human tumor cell lines, HCT116 (colon cell line), HePG 2 (human hepatocellular carcinoma cell line), and MCF7 (human breast adenocarcinoma) were used. In vitro bioassay on human tumor cell lines were conducted and determined by the Bioassay-Cell Culture Laboratory, National Research Centre, El-Tahrir St., Dokki, Cairo 12622, Egypt. They grew as a monolayer and are routinely maintained in RPMI-1640 medium supplemented with 5% heat-inactivated FBS, 2 mM glutamine and antibiotics (penicillin 100 U/mL, streptomycin 100 μg/mL), at 37° C. in a humidified atmosphere containing 5% CO2. Exponentially growing cells were obtained by plating 1.5×10^5 cells/mL for MCF-7 and HCT116 and 0.75×10^4 cells/mL for HePG2, followed by 24 h of incubation. The effect of the vehicle solvent (DMSO) on the growth of these cell lines was evaluated in all experiments by exposing untreated control cells to the maximum concentration (0.5%) of DMSO used in each assay.
(§3) Tumor cell growth assay: The effect on the in vitro growth of human tumor cell lines was evaluated according to the procedure adopted by the National Cancer Institute (NCI, USA) in the ‘In vitro Anticancer Drug Discovery Screen’ that uses the protein-binding dye sulforhodamine B to assess cell growth. Briefly, cells growing in 96-well plates were then exposed for 48 h to five serial concentrations of each compound, starting from a maximum concentration of 78 μM (P. Skehan, R. Storeng, D. Scudiero, A. Monks, J. McMahon, D. Vistica, J. T. Warren, H. Bokesch, S. Kenney, M. R. Boyd, J. Natl. Cancer Inst., 82, 1107 (1990), incorporated herein by reference in its entirety). Following this exposure period adherent cells were fixed, washed, and stained. The bound stain was solubilized and the absorbance was measured at 492 nm in a plate reader (Bio-Tek Instruments Inc., Power wave XS, Wincoski, USA). For each test compound and cell line, a dose-response curve was obtained and the growth inhibition of 50% (GI50), corresponding to the concentration of the compounds that inhibited 50% of the net cell growth, was calculated as described elsewhere (A. Monks, D. Scudiero, P. Skehan, R. Shoemaker, K. Paull, D. Vistica, C. Hose, J. Langley, P. Cronise, A. Vaigro-Wolff, M. Gray-Goodrich, H. Campbell, J. Mayo, M. J. Boyd, Natl. Cancer Inst., 83, 757 (1991), incorporated herein by reference in its entirety). Doxorubicin was used as a positive control and tested in the same manner.

[2] = test system: HePG 2 (human hepatocellular cancer cell line); experiment: Tumor cell growth assay (sulforhodamine B), HePG 2; type: cell-based; conditions: for Inhibitory effect on in vitro growth (in words): 48 h exposure; for Remarks (% at 100 ppm): 48 h
Description: as §1, §2, §3

[3] = test system: MCF7 (human breast cancer cell line); experiment: Tumor cell growth assay (sulforhodamine B), MCF7; type: cell-based; conditions: for Inhibitory effect on in vitro growth (in words): 48 h exposure; for Remarks (% at 100 ppm): 48 h; for LC90: death of 90% of cells in 48 hrs
Description: as §1, §2, §3

[4] = test system: Aspergillus flavus ATCC 16883; experiment: MIC by agar well diffusion method; type: cell-based; conditions: 25° C., 48 h, dilutions 50 to 500 μg/mL; for MIC: Aspergillus flavus, ATCC16883
Description: (§4) The common pathogenic and food spoilage microorganisms were selected for their relevance in bakery products and other food: the gram-positive bacteria: Bacillus subtilits NRRL-B-4219, Staphylococcus aureus ATCC 6538, Enterococcus faecalis ATCC 19433; the gram negative bacteria: Escherichia coli ATCC 25922, Pseudomonas aeruginosa ATCC 9027, Proteus sp.; yeasts, such as Candida albicans ATCC 10231; and fungi: Aspergillus niger NRRL 2766 (equivalent to ATCC 16888), and Aspergillus flavus ATCC 16883. The bacteria were slanted on nutrient agar (Merck, Darmstadt, Germany), yeast was slanted and mentioned on Sabaroud's agar medium (Lab M., Bury, Lancashire, UK) and the fungi was slanted and mentioned on the potato Dextrose Agar medium (Lab M Limited, Bury, Lancashire, UK). Mueller-Hinton agar (Lab M., Bury, Lancashire, UK) following the manufacturer's instructions was used for the assay. The in vitro minimum inhibitory concentration (MIC) of the synthesized compounds was determined by the agar well diffusion method. DMSO was used to prepare different concentrations ranging from 50 to 500 μg/mL by serial dilutions. The media were inoculated with 100 μL of each of the 10^6 cfu/mL bacterial and fungal strains, and the assay was applied by an agar well diffusion method. Blank DMSO was used as negative control. The plates were incubated aerobically in an incubator at 37° C. for 24 h for bacterial strains and 25° C. for 48 h for fungal strains. The MIC was taken as the lowest concentration in the series dilution that prevented bacterial growth.

[5] = test system: Aspergillus niger NRRL 2766; experiment: MIC by agar well diffusion method; type: cell-based; conditions: 25° C., 48 h, dilutions 50 to 500 μg/mL; for MIC: Aspergillus niger, NRRL2766
Description: as §4

[6] = test system: Bacillus subtilits NRRL-B-4219; experiment: MIC by agar well diffusion method; type: cell-based; conditions: 37° C., 24 h, dilutions 50 to 500 μg/mL; for MIC: Bacillus, NRRLB4219
Description: as §4

[7] = test system: Candida albicans ATCC 10231; experiment: MIC by agar well diffusion method; type: cell-based; conditions: 25° C., 48 h, dilutions 50 to 500 μg/mL; for MIC: Candida albicans, ATCC10231
Description: as §4

[8] = test system: Enterococcus faecalis ATCC 19433; experiment: MIC by agar well diffusion method; type: cell-based; conditions: 37° C., 24 h, dilutions 50 to 500 μg/mL; for MIC: Enterococcus faecalis, ATCC19433, read-out: MIC, Ent. faecalis
Description: as §4

[9] = test system: Escherichia coli ATCC 25922; experiment: MIC by agar well diffusion method; type: cell-based; conditions: 37° C., 24 h, dilutions 50 to 500 μg/mL; for MIC: Escherichia coli, ATCC25922
Description: as §4

Proteus sp. = experiment: MIC by agar well diffusion method; type: cell-based; conditions: 37° C., 24 h; dilutions 50 to 500 μg/mL
Description: as §4

[10] = test system: Pseudomonas aeruginosa ATCC 9027; experiment: MIC by agar well diffusion method; type: cell-based; conditions: 37° C., 24 h, dilutions 50 to 500 μg/mL; for MIC: Pseudomonas aeruginosa, ATCC9027, read-out: MIC, P. aeruginosa
Description: as §4

[11] = test system: Staphylococcus aureus ATCC 6538; experiment: MIC by agar well diffusion method; type: cell-based; conditions: 37° C., 24 h, dilutions 50 to 500 μg/mL; for MIC: Staphylococcus aureus, ATCC6538, read-out: MIC, S. aureus
Description: as §4

Compound | Inhibitory effect on in vitro growth (in words) [1] | Remarks (% at 100 ppm) [1] [% at 100 ppm] | LC90 [1] [µg/mL] | Inhibitory effect on in vitro growth (in words) [2] | Remarks (% at 100 ppm) [2] [% at 100 ppm] | Inhibitory effect on in vitro growth (in words) [3] | Remarks (% at 100 ppm) [3] [% at 100 ppm] | LC90 [3] [µg/mL] | MIC [4] [µg/mL] | MIC [5] [µg/mL] | MIC [6] [µg/mL] | MIC [7] [µg/mL] | MIC [8] [µg/mL] | MIC [9] [µg/mL] | MIC (Proteus sp.) [µg/mL] | MIC [10] [µg/mL] | MIC [11] [µg/mL] | further results
CCOC1Oc2ccccc2C(=O)C1=NNc1ccc(Cl)cc1 (stereo not shown) [Compound 6c, 3-[(4-Chlorophenyl)hydrazono]-2-ethoxychroman-4-one] | highest inhibitory effect | 100 | 23.1 (≈ 69.8 µM) | highest inhibitory effect | 94.2 | highest inhibitory effect | 100 | 27.0 (≈ 81.6 µM) | 200 (≈ 605 µM) | 100 (≈ 302 µM) | 75 (≈ 227 µM) | 50 (≈ 151 µM) | 200 (≈ 605 µM) | 50 (≈ 151 µM) | 150 (≈ 453 µM) | 150 (≈ 453 µM) | 150 (≈ 453 µM) | CC50 ([1]; Homo sapiens, HCT-116, death of 50% of cells in 48 hrs, read-out: LC50 (the source's name)): 13.2 µg/mL (≈ 39.9 µM); LC50 (concentration killing 50% of cells) ([2]; Homo sapiens, HepG2, death of 50% of cells in 48 hrs): 39 µg/mL; LC90 ([2]; death of 90% of cells in 48 hrs): 68.9 µg/mL (≈ 208 µM); LC50 (concentration killing 50% of cells) ([3]; Homo sapiens, death of 50% of cells in 48 hrs): 15.8 µg/mL
Ethoxy-3-[(4-nitro-phenyl)-hydrazono]-chroman-one [Compound 6a] | highest inhibitory effect | 65.3 | 123.3 | highest inhibitory effect | 45.3 | highest inhibitory effect | 61.3 | 124.1 |  |  |  |  |  |  |  |  |  | LC50 ([3]; death of 50% of cells in 48 hrs): 76.3 µg/mL; MIC, A. flavus [4]: 250 µg/mL; MIC, A. niger [5]: 200 µg/mL; MIC, B. subtilits [6]: 150 µg/mL; MIC, C. albicans [7]: 250 µg/mL; MIC, Ent. faecalis [8]: 250 µg/mL; MIC, E. coli [9]: 100 µg/mL; MIC, Proteus sp. (Proteus sp.): 250 µg/mL; MIC, P. aeruginosa [10]: 300 µg/mL; MIC, S. aureus [11]: 350 µg/mL
CCOC1Oc2ccccc2C(=O)C1=NNc1ccccc1OC (stereo not shown) [Compound 6b, 2-ethoxy-3-(2-(2-methoxyphenyl)hydrazono)chroman-4-one] |  | 39.6 |  |  | 56.1 |  | 22.9 |  | 350 (≈ 1070 µM) | 300 (≈ 919 µM) | 200 (≈ 613 µM) | 400 (≈ 1230 µM) | 450 (≈ 1380 µM) | 250 (≈ 766 µM) | 350 (≈ 1070 µM) | 400 (≈ 1230 µM) | 300 (≈ 919 µM) | melting point: 158 °C

— patent publication US10266510B2, “Antimicrobial and cytotoxic compounds and methods for treating cancer, a bacterial infection, and/or a fungal infection” (King Abdulaziz University, priority 2017, dated 2019)
